Data reported in US20250163104A1, “MACROCYCLIC IMMUNOMODULATORS” (priority 2021, published 2025).
Where a SMILES comes first, the peptide text is derived from it. Bridges are numbered along the chain shown (N, C = ends). [ ]: non-standard residue; d: D form. The star is where a group is joined. ξ: configuration not given here. Phe(3,5-F2) = N[C@@H](Cc1cc(F)cc(F)c1)C(=O)O; Bip = N[C@@H](Cc1ccc(-c2ccccc2)cc1)C(=O)O; Phe(3-Me) = Cc1cccc(C[C@H](N)C(=O)O)c1; 4Pal = N[C@@H](Cc1ccncc1)C(=O)O; Cha = N[C@@H](CC1CCCCC1)C(=O)O; Cit = NC(=O)NCCC[C@H](N)C(=O)O; NMeN = CN[C@@H](CC(N)=O)C(=O)O; Thr(3ξ) = CC(O)[C@H](N)C(=O)O; Carboxymethyl = O=C(O)C*; Nle = CCCC[C@H](N)C(=O)O; Orn = NCCC[C@H](N)C(=O)O; Dab = NCC[C@H](N)C(=O)O; Dap = NC[C@H](N)C(=O)O; ξPra = C#CCC(N)C(=O)O; X2 = Cc1cnc(CN*)cn1

Biological target: T1, human PD-1 / PD-L1-Ig binding on Jurkat cell line over-expressing human PD-1 (Jurkat-PD-1) (Homo sapiens, UniProt Q15116)
T1 construct: expressed in transfected cells; host or cells: Jurkat
T1 sequence (Q15116 25-288): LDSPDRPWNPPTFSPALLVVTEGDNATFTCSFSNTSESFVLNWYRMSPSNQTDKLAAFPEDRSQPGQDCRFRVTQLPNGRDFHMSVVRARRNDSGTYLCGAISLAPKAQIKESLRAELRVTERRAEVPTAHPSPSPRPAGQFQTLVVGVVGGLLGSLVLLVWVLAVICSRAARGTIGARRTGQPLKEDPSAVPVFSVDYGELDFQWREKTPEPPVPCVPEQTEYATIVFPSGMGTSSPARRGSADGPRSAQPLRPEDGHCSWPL
Assay: Jurkat-PD-1 Cell Binding High-Content Screening Assay (CBA)
Assay type: cell-based
Details: Jurkat-PD-1 cells, PE-labeled PD-L1-Ig 20 nM final; read-out: Jurkat HPD1_PDL1 IC50
Method in brief: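 Cell-bound PE-labeled PD-L1-Ig (20 nM final, 1 h) measured by high-content imaging after fixation and Hoechst 33342 counterstain. Compound was applied first for 2 h at 37° C. to Jurkat cells over-expressing human PD-1 in DMEM with 10% FCS.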

Row | SMILES | IC50
1 | C#CCC(NC(=O)[C@H](CCCN)NC(=O)[C@@H]1CSCC(=O)N[C@@H](Cc2ccncc2)C(=O)N[C@@H](Cc2ccc(OCC(=O)O)cc2)C(=O)N[C@@H](CC(=O)O)C(=O)N[C@@H](Cc2c[nH]c3ccccc23)C(=O)N[C@@H](C(C)C)C(=O)N[C@@H](Cc2ccc(-c3ccccc3)cc2)C(=O)N[C@@H]([C@@H](C)CC)C(=O)N[C@@H](CCCN)C(=O)N[C@H](CC(C)C)C(=O)N[C@@H](CCN)C(=O)N[C@@H](CC(C)C)C(=O)N[C@@H](C(C)C)C(=O)N[C@@H]([C@@H](C)O)C(=O)N1)C(N)=O (stereo partly drawn) [Compound 1760] ({CH2CO}-[4Pal]Y(Carboxymethyl)DWV[Bip]I[Orn][dL][Dab]LVTC[Orn][ξPra]-NH2; thioether N-14) | 39.6 nM
2 | CC[C@H](C)[C@@H]1NC(=O)[C@H](Cc2ccc(-c3ccccc3)cc2)NC(=O)[C@H](C(C)C)NC(=O)[C@H](Cc2c[nH]c3ccccc23)NC(=O)[C@H](CC(=O)O)NC(=O)[C@H](Cc2ccc(OCC(=O)O)cc2)NC(=O)[C@H](CN)NC(=O)CSC[C@@H](C(=O)N[C@@H](C)C(N)=O)NC(=O)[C@H]([C@@H](C)O)NC(=O)[C@H](C(C)C)NC(=O)[C@H](CC2CCCCC2)NC(=O)[C@H](Cc2cnc[nH]2)NC(=O)[C@@H](CC(C)C)NC(=O)[C@H](CCCN)NC1=O [Compound 1589] | 16.4 nM
3 | CC[C@H](C)[C@@H]1NC(=O)[C@H](Cc2ccc(-c3ccccc3)cc2)NC(=O)[C@H](C(C)C)NC(=O)[C@H](Cc2cccc(C)c2)NC(=O)[C@H](CC(=O)O)NC(=O)[C@H](Cc2ccc(C(=O)O)cc2)NC(=O)[C@H](Cc2ccncc2)NC(=O)CSC[C@@H](C(=O)N[C@@H](CCN)C(N)=O)NC(=O)[C@H]([C@@H](C)O)NC(=O)[C@H](C(C)C)NC(=O)[C@H](CC2CCCCC2)NC(=O)[C@H](CCN)NC(=O)[C@@H](CC(C)C)NC(=O)[C@H](CCCN)NC1=O [Compound 2007] | 24.3 nM
4 | CC(C)C[C@H]1NC(=O)[C@H](CCCN)NC(=O)[C@H](CCC(=O)O)NC(=O)[C@H](Cc2ccc(-c3ccccc3)cc2)NC(=O)[C@H](C(C)C)NC(=O)[C@H](Cc2c[nH]c3ccccc23)NC(=O)[C@H](CC(=O)O)NC(=O)[C@H](Cc2ccc(OCC(=O)O)cc2)NC(=O)[C@H](CN)NC(=O)CSC[C@@H](C(=O)N[C@@H](C)C(N)=O)NC(=O)[C@H]([C@@H](C)O)NC(=O)[C@H](C(C)C)NC(=O)[C@H](CC2CCCCC2)NC(=O)[C@H](CCC(N)=O)NC1=O [Compound 1513] ({CH2CO}-[Dap]Y(Carboxymethyl)DWV[Bip]E[Orn][dL]Q[Cha]VTCA-NH2; thioether N-14) | 25.7 nM
5 | CCCC[C@@H]1NC(=O)[C@H](Cc2c[nH]c3ccccc23)NC(=O)[C@H](CC(=O)O)NC(=O)[C@H](Cc2ccc(OCC(=O)O)cc2)NC(=O)[C@H](CN)NC(=O)CSC[C@@H](C(=O)N[C@@H](C)C(N)=O)NC(=O)[C@H]([C@@H](C)O)NC(=O)[C@H](C(C)C)NC(=O)[C@H](CC2CCCCC2)NC(=O)[C@H](CCN)NC(=O)[C@@H](CC(C)C)NC(=O)[C@H](CCCN)NC(=O)[C@H](CCC(=O)O)NC(=O)[C@H](Cc2ccc(-c3ccccc3)cc2)NC1=O [Compound 1718] ({CH2CO}-[Dap]Y(Carboxymethyl)DW[Nle][Bip]E[Orn][dL][Dab][Cha]VTCA-NH2; thioether N-14) | 24.2 nM

Continued by falling IC50, values first:

Row | IC50 | SMILES
6 | 94.5 nM | Cc1cccc(C[C@@H]2NC(=O)[C@H](CC(=O)O)NC(=O)[C@H](Cc3ccncc3)NC(=O)[C@H](CN)NC(=O)CSC[C@@H](C(N)=O)NC(=O)[C@H]([C@@H](C)O)NC(=O)[C@H](C(C)C)NC(=O)[C@H](CC(C)C)NC(=O)[C@H](CCN)NC(=O)[C@@H](CC(C)C)NC(=O)[C@H](CCCN)NC(=O)[C@H](C(C)C)NC(=O)[C@H](Cc3ccc(-c4ccccc4)cc3)NC(=O)[C@H](C(C)C)NC2=O)c1 [Compound 1550] ({CH2CO}-[Dap][4Pal]D[Phe(3-Me)]V[Bip]V[Orn][dL][Dab]LVTC-NH2; thioether N-14)
7 | 67.1 nM | CC(C)C[C@H]1NC(=O)[C@H](CCCN)NC(=O)[C@H](C(C)C)NC(=O)[C@H](Cc2ccc(-c3ccccc3)cc2)NC(=O)[C@H](C(C)C)NC(=O)[C@H](Cc2c[nH]c3ccccc23)NC(=O)[C@H](CC(=O)O)NC(=O)[C@H](Cc2ccc(OCC(=O)O)cc2)NC(=O)[C@H](C(C)O)NC(=O)CSC[C@@H](C(=O)N(C)[C@@H](CC(N)=O)C(N)=O)NC(=O)[C@H](CO)NC(=O)[C@H](C(C)C)NC(=O)[C@H](CC2CCCCC2)NC(=O)[C@H](CCN)NC1=O (stereo partly drawn) [Compound 2568] ({CH2CO}-[Thr(3ξ)]Y(Carboxymethyl)DWV[Bip]V[Orn][dL][Dab][Cha]VSC[NMeN]-NH2; thioether N-14)
8 | 57.7 nM | CC(C)C[C@@H]1NC(=O)[C@H](CCCCN)NC(=O)[C@@H](CC(C)C)NC(=O)[C@H](CCN)NC(=O)[C@H](Cc2cnc[nH]2)NC(=O)[C@H](Cc2ccc(-c3ccccc3)cc2)NC(=O)[C@H](C(C)C)NC(=O)[C@H](Cc2c[nH]c3ccccc23)NC(=O)[C@H](CC(=O)O)NC(=O)[C@H](Cc2ccc(O)cc2)NC(=O)[C@H](CC(N)=O)NC(=O)CSC[C@@H](C(=O)NCC(N)=O)NC(=O)[C@H]([C@@H](C)O)NC(=O)[C@H](C(C)C)NC1=O [Compound 1140] ({CH2CO}-NYDWV[Bip]H[Dab][dL]KLVTCG-NH2; thioether N-14)
9 | 33 nM | CC(C)C[C@H]1NC(=O)[C@H](CCCN)NC(=O)[C@H](CCC(=O)O)NC(=O)[C@H](Cc2ccc(-c3ccccc3)cc2)NC(=O)[C@H](C(C)C)NC(=O)[C@H](Cc2c[nH]c3ccccc23)NC(=O)[C@H](CC(=O)O)NC(=O)[C@H](Cc2ccc(OCC(=O)O)cc2)NC(=O)[C@H](CN)NC(=O)CSC[C@@H](C(=O)N[C@@H](C)C(N)=O)NC(=O)[C@H]([C@@H](C)O)NC(=O)[C@H](C(C)C)NC(=O)[C@H](Cc2cc(F)cc(F)c2)NC(=O)[C@H](CCN)NC1=O [Compound 1476] ({CH2CO}-[Dap]Y(Carboxymethyl)DWV[Bip]E[Orn][dL][Dab][Phe(3,5-F2)]VTCA-NH2; thioether N-14)
10 | 12.8 nM | Cc1cccc(C[C@@H]2NC(=O)[C@H](CC(=O)O)NC(=O)[C@H](Cc3ccc(OCC(=O)O)cc3)NC(=O)[C@H](CN)NC(=O)CSC[C@@H](C(=O)N[C@@H](C)C(=O)NCc3cnc(C)cn3)NC(=O)[C@H](CN)NC(=O)[C@H](C(C)C)NC(=O)[C@H](CC3CCCCC3)NC(=O)[C@H](CCN)NC(=O)[C@@H](CC(C)C)NC(=O)[C@H](CCCN)NC(=O)[C@H](CCCNC(N)=O)NC(=O)[C@H](Cc3ccc(-c4ccccc4)cc3)NC(=O)[C@H](C(C)C)NC2=O)c1 [Compound 2019] ({CH2CO}-[Dap]Y(Carboxymethyl)D[Phe(3-Me)]V[Bip][Cit][Orn][dL][Dab][Cha]V[Dap]CA-X2; thioether N-14)
11 | 6 nM | CC(C)C[C@H]1NC(=O)[C@H](CCCN)NC(=O)[C@H](C(C)C)NC(=O)[C@H](Cc2ccc(-c3ccccc3)cc2)NC(=O)[C@H](C(C)C)NC(=O)[C@H](Cc2c[nH]c3ccccc23)NC(=O)[C@H](CC(=O)O)NC(=O)[C@H](Cc2ccc(OCC(=O)O)cc2)NC(=O)[C@H](Cc2ccc(OCC(=O)O)cc2)NC(=O)CSC[C@@H](C(=O)N[C@@H](C)C(N)=O)NC(=O)[C@H](CCCN)NC(=O)[C@H](C(C)C)NC(=O)[C@H](CC2CCCCC2)NC(=O)[C@H](CCN)NC1=O [Compound 1743] ({CH2CO}-Y(Carboxymethyl)Y(Carboxymethyl)DWV[Bip]V[Orn][dL][Dab][Cha]V[Orn]CA-NH2; thioether N-14)
